This passage reports DC50 and Dmax results from patent US11427548B2 (Arvinas Operations, Inc., priority 2015, dated 2022).

The target of the experiment is T1, Androgen Receptor (Homo sapiens, UniProt P10275+P40337, T878A).
T1 construct: Compounds have been evaluated in this assay in LNCaP and/or VCaP cells utilizing similar protocols; endogenous in cells; host or cells: LNCaP cells
Briefly: Androgen Receptor ELISA assay (PathScan AR ELISA) in LNCaP cells: AR degradation, Dmax and DC50. It counts as cell-based. The settings on record: for DC50: concentration that caused 50% Androgen Receptor degradation.

Where [1] appears, read: highest percentage of Androgen Receptor degradation observed.
The mark [2] stands for this setting: highest percentage of Androgen Receptor degradation.

T1 sequence (P10275 whole entry T878A): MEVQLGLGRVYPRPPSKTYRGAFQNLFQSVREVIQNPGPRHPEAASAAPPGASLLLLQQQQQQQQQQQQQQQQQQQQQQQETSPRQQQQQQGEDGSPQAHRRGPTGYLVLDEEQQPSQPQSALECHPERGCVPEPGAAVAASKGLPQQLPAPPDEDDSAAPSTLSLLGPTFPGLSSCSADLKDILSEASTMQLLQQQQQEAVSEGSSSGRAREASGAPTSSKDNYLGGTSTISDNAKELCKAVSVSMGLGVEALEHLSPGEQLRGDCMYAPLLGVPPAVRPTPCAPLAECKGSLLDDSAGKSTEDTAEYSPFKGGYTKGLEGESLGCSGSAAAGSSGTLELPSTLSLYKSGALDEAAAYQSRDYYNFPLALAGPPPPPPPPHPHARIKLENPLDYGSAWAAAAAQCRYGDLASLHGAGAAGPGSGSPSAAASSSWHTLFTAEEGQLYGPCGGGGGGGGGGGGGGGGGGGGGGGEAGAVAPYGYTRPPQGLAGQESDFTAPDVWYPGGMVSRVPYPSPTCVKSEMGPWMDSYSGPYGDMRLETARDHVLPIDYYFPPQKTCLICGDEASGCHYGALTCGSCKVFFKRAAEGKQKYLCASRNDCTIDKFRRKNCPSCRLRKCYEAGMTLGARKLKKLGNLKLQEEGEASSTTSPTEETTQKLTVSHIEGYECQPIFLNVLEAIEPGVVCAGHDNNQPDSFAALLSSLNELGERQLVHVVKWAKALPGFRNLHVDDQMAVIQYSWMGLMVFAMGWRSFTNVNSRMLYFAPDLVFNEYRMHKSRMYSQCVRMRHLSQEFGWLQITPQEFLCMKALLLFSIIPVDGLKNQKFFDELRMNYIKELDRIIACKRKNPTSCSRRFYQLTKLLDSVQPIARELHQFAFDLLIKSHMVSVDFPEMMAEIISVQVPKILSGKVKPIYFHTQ
T1 sequence (P40337 whole entry): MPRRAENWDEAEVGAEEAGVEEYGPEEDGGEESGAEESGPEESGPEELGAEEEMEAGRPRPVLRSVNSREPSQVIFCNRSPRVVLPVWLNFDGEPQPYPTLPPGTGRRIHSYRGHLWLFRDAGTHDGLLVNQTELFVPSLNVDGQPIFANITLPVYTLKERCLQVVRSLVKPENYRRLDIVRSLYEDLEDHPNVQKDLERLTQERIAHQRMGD
T1 sequence (Q15369 whole entry partner): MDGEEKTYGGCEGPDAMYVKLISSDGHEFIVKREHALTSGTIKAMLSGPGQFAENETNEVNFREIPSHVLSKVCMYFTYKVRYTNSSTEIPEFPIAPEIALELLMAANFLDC
T1 sequence (Q15370 whole entry partner): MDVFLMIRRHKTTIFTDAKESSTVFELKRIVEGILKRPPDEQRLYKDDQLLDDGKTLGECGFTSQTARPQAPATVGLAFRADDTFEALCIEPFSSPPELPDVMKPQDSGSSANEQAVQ

By DC50 is commonly meant the concentration giving 50% degradation. A low value points to a more potent degrader. Usually Dmax stands for the greatest extent of degradation seen. Lower therefore signals shallow degradation. `Cc1ncsc1-c1ccc(CNC(=O)[C@@H]2C[C@@H](O)CN2C(=O)[C@@H](NC(=O)CCOCCCCCOc2ccc(-c3ccc(N4C(=S)N(c5ccc(C#N)c(C(F)(F)F)c5)C(=O)C4(C)C)cc3)cc2)C(C)(C)C)cc1` [Example 72, (2S,4R)-1-[(2S)-2-[3-({5-[4-(4-{3-[4-cyano-3-(trifluoromethyl)phenyl]-5,5-dimethyl-4-oxo-2-sulfanylideneimidazolidin-1-yl}phenyl)phenoxy]pentyl}oxy)propanamido]-3,3-dimethylbutanoyl]-4-hydroxy-N-{[4-(4-methyl-1,3-thiazol-5-yl)phenyl]methyl}pyrrolidine-2-carboxamide]: the DC50 lay in the range of 0.051 to 0.5 µM. The Dmax under setting [1] was more than 71%.
The corresponding values for `Cc1ncsc1-c1ccc(CNC(=O)[C@@H]2C[C@@H](O)CN2C(=O)[C@@H](NC(=O)OCCOCCOc2ccc(-c3ccc(N4C(=S)N(c5ccc(C#N)c(C(F)(F)F)c5)C(=O)C4(C)C)cc3F)cc2)C(C)(C)C)cc1` [Example 76, 2-{2-[4-(4-{3-[4-cyano-3-(trifluoromethyl)phenyl]-5,5-dimethyl-4-oxo-2-sulfanylideneimidazolidin-1-yl}-2-fluorophenyl)phenoxy]ethoxy}ethyl N-[(2S)-1-[(2S,4R )-4-hydroxy-2-({[4-(4-methy1-1,3-thiazol-5-yl)phenyl]methyl}carbamoyl)pyrrolidin-l-yl]-3,3-dimethyl-1-oxobutan-2-yl]carhamate] are less than 0.05 µM and 51 to 70%.
The corresponding values for `Cc1ncsc1-c1ccc(CNC(=O)[C@@H]2C[C@@H](O)CN2C(=O)[C@H](C(C)C)N2Cc3ccccc3C2=O)c(OCCOCCOCCOc2ccc(N3C(=S)N(c4ccc(C#N)c(C(F)(F)F)c4)C(=O)C3(C)C)cc2)c1` [Example 82, (2S,4R)—N-(2-(2-(2-(2-(4-(3-(4-cyano-3-(trifluoromethyl)phenyl)-5,5-dimethyl-4-oxo-2-thioxoimidazolidin-1-yl)phenoxy)ethoxy)ethoxy)ethoxy)-4-(4-methylthiazol-5-yl)benzyl)-4-hydroxy-1-((S)-3-methyl-2-(1-oxoisoindolin-2-yl)butanoyl)pyrrolidine-2-carboxamide] are 0.051 to 0.5 µM and 51 to 70%.
The corresponding values for `Cc1ncsc1-c1ccc(CNC(=O)[C@@H]2C[C@@H](O)CN2C(=O)[C@H](C(C)C)N2Cc3ccc(F)cc3C2=O)c(OCCOCCOCCOc2ccc(N3C(=S)N(c4ccc(C#N)c(C(F)(F)F)c4)C(=O)C3(C)C)cc2)c1` [Example 83, (2S,4R)-N-{[2-(2-{2-[2-(4-{3-[4-cyano-3-(trifluoromethyl)phenyl]-5,5-dimethyl-4-oxo-2-sulfanylideneimidazolidin-1-yl}phenoxy)ethoxy]ethoxy}ethoxy)-4-(4-methyl-1,3-thiazol-5-yl)phenyl]methyl}-1-[(2S)-2-(6-fluoro-1-oxo-2,3-dihydro-1H-isoindol-2-yl)-3-methylbutanoyl]-4-hydroxypyrrolidine-2-carboxamide] are 0.051 to 0.5 µM and 51 to 70%.
As for `Cc1ncsc1-c1ccc(CNC(=O)[C@@H]2C[C@@H](O)CN2C(=O)[C@H](C(C)C)N2Cc3cccc(C#N)c3C2=O)c(OCCOCCOCCOc2ccc(N3C(=S)N(c4ccc(C#N)c(C(F)(F)F)c4)C(=O)C3(C)C)cc2)c1` [Example 84], the DC50 fell in the range of 0.051 to 0.5 µM. The compound further had a Dmax under setting [1] of 51 to 70%.
The matching figures for `Cc1ncsc1-c1ccc(CNC(=O)[C@@H]2C[C@@H](O)CN2C(=O)[C@H](C(C)C)N2Cc3ccccc3C2=O)c(OCCO[C@H](C)[C@@H](C)OCCOc2ccc(N3C(=S)N(c4ccc(C#N)c(C(F)(F)F)c4)C(=O)C3(C)C)cc2)c1` [Example 85, (2S,4R)-N-{[2-(2-{[(2R,3R)-3-[2-(4-{3-[4-cyano-3-(trifluoromethyl)phenyl]-5,5-dimethyl-4-oxo-2-sulfanylideneimidazolidin-1-yl}phenoxy)ethoxy]butan-2-yl]oxy}ethoxy)-4-(4-methyl-1,3-thiazol-5-yl)phenyl]methyl}-4-hydroxy-1-[(2S)-3-methyl-2-(1-oxo-2,3-dihydro-1H-isoindol-2-yl)butanoyl]pyrrolidine-2-carboxamide]: more than 0.501 µM and 51 to 70%.
Take `Cc1ncsc1-c1ccc(CNC(=O)[C@@H]2C[C@@H](O)CN2C(=O)[C@H](C(C)C)N2Cc3ccccc3C2=O)c(OCCCOCCOCCOc2ccc(N3C(=S)N(c4ccc(C#N)c(C(F)(F)F)c4)C(=O)C3(C)C)cc2)c1` [Example 205]: the DC50 is more than 0.501 µM. Also, under setting [2], the Dmax was less than 25%.
The matching figures for `Cc1ncsc1-c1ccc(CNC(=O)[C@@H]2C[C@@H](O)CN2C(=O)[C@H](C(C)C)N2Cc3ccccc3C2=O)c(OCCOCCOc2ccc(N3C(=S)N(c4ccc(C#N)c(C(F)(F)F)c4)C(=O)C3(C)C)cc2)c1` [Example 206]: 0.051 to 0.5 µM and 51 to 70%.
The matching figures for `Cc1ncsc1-c1ccc(CNC(=O)[C@@H]2C[C@@H](O)CN2C(=O)[C@H](C(C)C)N2Cc3ccccc3C2=O)c(OCCCCOCCCCOCCCCOc2ccc(N3C(=S)N(c4ccc(C#N)c(C(F)(F)F)c4)C(=O)C3(C)C)cc2)c1` [Example 207]: 0.051 to 0.5 µM and 26 to 50%.
The corresponding values for `Cc1ncsc1-c1ccc(CNC(=O)[C@@H]2C[C@@H](O)CN2C(=O)[C@H](C(C)C)N2Cc3ccccc3C2=O)c(OCCOCCOCCOCCOc2ccc(N3C(=S)N(c4ccc(C#N)c(C(F)(F)F)c4)C(=O)C3(C)C)cc2)c1` [Example 210] are more than 0.501 µM and 26 to 50%.
For the compound `Cc1ncsc1-c1ccc(CNC(=O)[C@@H]2C[C@@H](O)CN2C(=O)[C@H](C(C)C)N2Cc3ccccc3C2=O)c(OCCOCCOCCOCCOCCOc2ccc(N3C(=S)N(c4ccc(C#N)c(C(F)(F)F)c4)C(=O)C3(C)C)cc2)c1` [Example 211], the DC50 was in the range of 0.051 to 0.5 µM. Besides, the Dmax under setting [2] lay within 26 to 50%.
The matching figures for `Cc1ncsc1-c1ccc(CNC(=O)[C@@H]2C[C@@H](O)CN2C(=O)[C@@H](NC(=O)COCCOCCOCCOCCOCCOCCOc2ccc(N3C(=S)N(c4ccc(C#N)c(C(F)(F)F)c4)C(=O)C3(C)C)cc2)C(C)(C)C)cc1` [Example 212]: more than 0.501 µM and more than 71%.
With `Cc1ncsc1-c1ccc(CNC(=O)[C@@H]2C[C@@H](O)CN2C(=O)[C@H](C(C)C)N2Cc3ccccc3C2=O)c(OCCOCCOCCCOCCOCCOc2ccc(N3C(=S)N(c4ccc(C#N)c(C(F)(F)F)c4)C(=O)C3(C)C)cc2)c1` [Example 214], the DC50 lay within 0.051 to 0.5 µM. Besides, the Dmax under setting [2] lay in the range of 51 to 70%.
The matching figures for `Cc1ncsc1-c1ccc(CNC(=O)[C@@H]2C[C@@H](O)CN2C(=O)[C@H](C(C)C)N2Cc3ccccc3C2=O)c(OCCOCCOCCCCOCCOCCOc2ccc(N3C(=S)N(c4ccc(C#N)c(C(F)(F)F)c4)C(=O)C3(C)C)cc2)c1` [Example 215]: 0.051 to 0.5 µM and 26 to 50%.
The matching figures for `Cc1ncsc1-c1ccc(CNC(=O)[C@@H]2C[C@@H](O)CN2C(=O)[C@@H](NC(=O)COCCOCCOCCCOCCOCCOc2ccc(N3C(=S)N(c4ccc(C#N)c(C(F)(F)F)c4)C(=O)C3(C)C)cc2)C(C)(C)C)cc1` [Example 216]: 0.051 to 0.5 µM and 51 to 70%.
The corresponding values for `Cc1ncsc1-c1ccc(CNC(=O)[C@@H]2C[C@@H](O)CN2C(=O)[C@@H](NC(=O)COCCOCCOCCCCOCCOCCOc2ccc(N3C(=S)N(c4ccc(C#N)c(C(F)(F)F)c4)C(=O)C3(C)C)cc2)C(C)(C)C)cc1` [Example 217] are less than 0.05 µM and 51 to 70%.
